The source of these data is patent EP3625243B1, “TAILORED CYCLODEPSIPEPTIDES AS POTENT NON-COVALENT SERINE PROTEASE INHIBITORS” (Universität Duisburg-Essen, priority 2017, dated 2018).

One experiment deals with HTRA1 (Homo sapiens, UniProt Q92743). Nature of the experiment: Chromogenic enzyme activity assay, HTRA1.
Experiment [1] concerns the target T1, human neutrophil elastase (Homo sapiens, UniProt P08246).
T1 construct: purchased Enzo Life Sciences BML-SE284
T1 sequence (P08246 30-267): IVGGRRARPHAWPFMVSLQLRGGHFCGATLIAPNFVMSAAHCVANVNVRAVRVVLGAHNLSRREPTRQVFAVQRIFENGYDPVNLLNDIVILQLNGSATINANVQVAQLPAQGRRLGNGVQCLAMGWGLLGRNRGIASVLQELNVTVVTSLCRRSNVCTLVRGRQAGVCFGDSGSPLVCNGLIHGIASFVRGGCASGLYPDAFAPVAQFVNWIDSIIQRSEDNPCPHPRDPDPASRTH
The experiment can be described thus: Chromogenic enzyme activity assay, elastase. It is filed as biochemical.

The target in a further experiment is HTRA3 (Homo sapiens, UniProt P83110). Nature of the experiment: Chromogenic enzyme activity assay, HTRA3.
Sequence of HTRA3 (P83110 111-436): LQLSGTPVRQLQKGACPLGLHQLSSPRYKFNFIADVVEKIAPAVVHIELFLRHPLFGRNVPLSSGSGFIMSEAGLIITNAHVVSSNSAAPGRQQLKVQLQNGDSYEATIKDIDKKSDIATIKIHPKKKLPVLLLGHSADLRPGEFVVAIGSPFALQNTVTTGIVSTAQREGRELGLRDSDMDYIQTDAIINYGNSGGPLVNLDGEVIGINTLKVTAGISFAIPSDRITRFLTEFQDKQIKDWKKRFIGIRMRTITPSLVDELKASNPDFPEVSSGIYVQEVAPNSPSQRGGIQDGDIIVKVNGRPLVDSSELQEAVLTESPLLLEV
Experiment [2] deals with T2, human pancreas chymotrypsin (Homo sapiens, UniProt P17538).
T2 construct: purchased Sigma-Aldrich SRP6509-100
T2 sequence (P17538 19-263): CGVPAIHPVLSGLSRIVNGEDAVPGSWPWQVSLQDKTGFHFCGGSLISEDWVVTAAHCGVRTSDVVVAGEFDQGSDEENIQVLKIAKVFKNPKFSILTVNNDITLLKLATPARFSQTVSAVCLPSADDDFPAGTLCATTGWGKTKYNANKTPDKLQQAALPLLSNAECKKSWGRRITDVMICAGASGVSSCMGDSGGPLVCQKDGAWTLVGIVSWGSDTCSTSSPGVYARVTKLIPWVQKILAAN
Nature of the experiment: Chromogenic enzyme activity assay, chymotrypsin. It counts as biochemical. To be noted: Table 2, substrate AAF-pNA, read-out: Ki Chymo- trypsin [a].

The next experiment deals with T3, HTRA2 (Homo sapiens, UniProt O43464).
T3 sequence (O43464 134-458): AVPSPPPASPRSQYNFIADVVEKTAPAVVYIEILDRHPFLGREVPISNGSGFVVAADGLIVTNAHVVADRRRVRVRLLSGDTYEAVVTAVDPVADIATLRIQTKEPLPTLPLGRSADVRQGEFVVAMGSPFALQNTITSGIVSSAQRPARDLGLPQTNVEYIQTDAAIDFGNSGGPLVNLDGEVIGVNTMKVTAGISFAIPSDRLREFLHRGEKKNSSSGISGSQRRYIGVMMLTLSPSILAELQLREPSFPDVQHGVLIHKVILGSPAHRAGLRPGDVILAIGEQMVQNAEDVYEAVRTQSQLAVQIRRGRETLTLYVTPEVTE
The experiment can be described thus: Chromogenic enzyme activity assay, HTRA2.

A further experiment deals with T4, bovine pancreas trypsin (Bos taurus, UniProt P00760).
T4 construct: purchased Sigma-Aldrich T1426
T4 sequence (P00760 24-246): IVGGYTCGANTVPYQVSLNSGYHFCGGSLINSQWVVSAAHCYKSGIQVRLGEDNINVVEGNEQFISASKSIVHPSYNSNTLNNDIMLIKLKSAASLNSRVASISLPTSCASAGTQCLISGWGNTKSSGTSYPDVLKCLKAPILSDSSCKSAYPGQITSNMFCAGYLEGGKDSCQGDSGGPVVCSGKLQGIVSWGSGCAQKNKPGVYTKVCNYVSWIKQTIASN
Nature of the experiment: Chromogenic enzyme activity assay, trypsin. It counts as biochemical. To be noted: Table 2, read-out: Ki Trypsin [c].

Setting [3] is: Table 3, read-out: Ki Elastase [b].
[4] abbreviates: Table 2, substrate AAPV-pNA, read-out: Ki Elastase [b].

Molecules are shown by their SMILES. Read-outs that look alike come from different tables or passages of the source.

Sequence of HTRA1 (Q92743 158-480): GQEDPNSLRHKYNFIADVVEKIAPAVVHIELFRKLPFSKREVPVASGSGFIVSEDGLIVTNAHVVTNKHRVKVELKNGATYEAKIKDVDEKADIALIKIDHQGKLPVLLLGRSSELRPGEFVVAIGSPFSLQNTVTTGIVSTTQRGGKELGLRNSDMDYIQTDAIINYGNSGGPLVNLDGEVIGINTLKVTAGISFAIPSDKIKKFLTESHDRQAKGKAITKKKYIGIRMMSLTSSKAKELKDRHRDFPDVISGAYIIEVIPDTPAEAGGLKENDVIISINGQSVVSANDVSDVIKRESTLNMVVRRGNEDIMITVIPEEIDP

Regarding `C#CC[C@@H]1NC(=O)[C@@H](NC(=O)[C@H](C)NC(=O)[C@H](C)NC(=O)OCc2ccccc2)[C@@H](C)OC(=O)[C@H](C(C)C)NC(=O)[C@H](Cc2ccccc2)N(C)C(=O)[C@H](CC(C)C)N2C(=O)[C@H](CC[C@H]2O)NC1=O` [Ahp18], the Ki was greater than 50 µM on HTRA1, 0.2 µM in experiment [1] (setting [3]) and 17.9 µM at HTRA3.

Regarding `CC(C)C[C@H]1C(=O)N(C)[C@@H](Cc2ccccc2)C(=O)N[C@@H](C(C)C)C(=O)O[C@H](C(C)C)[C@H](NC(=O)[C@H](C)NC(=O)[C@H](C)NC(=O)OCc2ccccc2)C(=O)N[C@@H](C(C)C)C(=O)N[C@H]2CC[C@@H](O)N1C2=O` [Ahp10], the Ki in experiment [2] is greater than 50 µM; on HTRA1, 2.4 ± 0.6 µM; in experiment [1] (setting [4]), 0.018 ± 0.004 µM; on HTRA3, 0.48 ± 0.07 µM; at HTRA2 it was 0.26 ± 0.03 µM. In addition, the “Ki (HTRA2)” value at HTRA2 (Table 2) was “sub-µM”.

As for `CC(C)C[C@H]1C(=O)N(C)[C@@H](Cc2ccccc2)C(=O)N[C@@H](C(C)C)C(=O)O[C@H](C)[C@H](NC(=O)[C@H](C)NC(=O)[C@H](C)NC(=O)OCc2ccccc2)C(=O)N[C@@H](Cc2ccccc2)C(=O)N[C@H]2CC[C@@H](O)N1C2=O` [Ahp2], the Ki (at HTRA1; in experiment [1] (setting [4]); at bovine pancreas trypsin; at HTRA3; on HTRA2) was greater than 50 µM in each case.

Regarding `CC(C)[C@@H]1NC(=O)[C@@H](NC(=O)[C@H](C)NC(=O)[C@H](C)NC(=O)OCc2ccccc2)[C@@H](C)OC(=O)[C@H](C(C)C)NC(=O)[C@H](Cc2ccccc2)N(C)C(=O)[C@H](Cc2ccccc2)N2C(=O)[C@H](CC[C@H]2O)NC1=O` [Ahp6], in experiment [2], the Ki was greater than 50 µM.

On to `CC(C)C[C@H]1C(=O)N(C)[C@@H](Cc2ccccc2)C(=O)N[C@@H](C(C)C)C(=O)O[C@H](C)[C@H](NC(=O)[C@H](C)NC(=O)[C@H](C)NC(=O)OCc2ccccc2)C(=O)N[C@@H](C(C)C)C(=O)N[C@H]2CC[C@@H](O)N1C2=O` [Ahp1], for which the Ki in experiment [2] was greater than 50 µM; on HTRA1, 8.2 ± 2.7 µM; in experiment [1] (setting [4]), 0.019 ± 0.003 µM; at HTRA3 it was 3 ± 0.5 µM; at HTRA2 it was 4.1 ± 0.4 µM.

In the case of `CCC[C@@H]1NC(=O)[C@@H](NC(=O)[C@H](C)NC(=O)[C@H](C)NC(=O)OCc2ccccc2)[C@@H](C)OC(=O)[C@H](C(C)C)NC(=O)[C@H](Cc2ccccc2)N(C)C(=O)[C@H](CC(C)C)N2C(=O)[C@H](CC[C@H]2O)NC1=O` [Ahp15], the Ki is 7 µM at HTRA1, 0.13 µM in experiment [1] (setting [3]), greater than 50 µM on HTRA3 and 0.69 µM at HTRA2.

As for `CCC(C)[C@@H]1NC(=O)[C@@H](NC(=O)[C@H](C)NC(=O)[C@H](C)NC(=O)OCc2ccccc2)[C@@H](C)OC(=O)[C@H](C(C)C)NC(=O)[C@H](Cc2ccccc2)N(C)C(=O)[C@H](CC(C)C)N2C(=O)[C@H](CC[C@H]2O)NC1=O` (some centres unmarked) [Ahp16], the Ki on HTRA1 was greater than 50 µM; in experiment [1] (setting [3]), 0.5 µM; on HTRA3, greater than 50 µM; on HTRA2, greater than 50 µM.

Regarding `CC(C)C[C@H]1C(=O)N(C)[C@@H](Cc2ccccc2)C(=O)N[C@@H](Cc2ccccc2)C(=O)O[C@H](C)[C@H](NC(=O)[C@H](C)NC(=O)[C@H](C)NC(=O)OCc2ccccc2)C(=O)N[C@@H](C(C)C)C(=O)N[C@H]2CC[C@@H](O)N1C2=O` [Ahp8], in experiment [2], the Ki was greater than 50 µM.

Consider `CC(C)C[C@H]1C(=O)N(C)[C@@H](Cc2ccccc2)C(=O)N[C@@H](C(C)C)C(=O)O[C@H](C)[C@H](NC(=O)[C@H](C)NC(=O)[C@H](C)NC(=O)OCc2ccccc2)C(=O)N[C@@H](C)C(=O)N[C@H]2CC[C@@H](O)N1C2=O` [Ahp13], for which the Ki came out at 4.26 µM at HTRA1, 0.026 µM in experiment [1] (setting [3]), 0.98 µM on HTRA3 and 0.26 µM on HTRA2.

As for `CC(C)C[C@H]1C(=O)N(C)[C@@H](Cc2ccccc2)C(=O)N[C@@H](C(C)C)C(=O)O[C@H](C)[C@H](NC(=O)[C@H](C)NC(=O)[C@H](C)NC(=O)OCc2ccccc2)C(=O)N[C@@H](C2CCCCC2)C(=O)N[C@H]2CC[C@@H](O)N1C2=O` [Ahp21], the Ki on HTRA1 (read-out: Ki HTRA1 [a], Table 3, human HTRA proteases) is greater than 50 µM; in experiment [1] (setting [3]) it was greater than 50 µM; on HTRA3 (read-out: Ki HTRA3 [a], Table 3, human HTRA proteases), greater than 50 µM; at HTRA2 (read-out: Ki HTRA2 [a], Table 3, human HTRA proteases) it was greater than 50 µM.

Turning to `CC[C@@H]1NC(=O)[C@@H](NC(=O)[C@H](C)NC(=O)[C@H](C)NC(=O)OCc2ccccc2)[C@@H](C)OC(=O)[C@H](C(C)C)NC(=O)[C@H](Cc2ccccc2)N(C)C(=O)[C@H](CC(C)C)N2C(=O)[C@H](CC[C@H]2O)NC1=O` [Ahp14], the Ki on HTRA1 was determined as 2.97 µM; in experiment [1] (setting [3]), 0.47 µM; at HTRA3, 1.46 µM; on HTRA2 it was 0.7 µM.

Regarding `CC(C)C[C@H]1C(=O)N(C)[C@@H](C)C(=O)N[C@@H](C(C)C)C(=O)O[C@H](C)[C@H](NC(=O)[C@H](C)NC(=O)[C@H](C)NC(=O)OCc2ccccc2)C(=O)N[C@@H](C(C)C)C(=O)N[C@H]2CC[C@@H](O)N1C2=O` [Ahp7], the Ki in experiment [2] is greater than 50 µM; at HTRA1, greater than 50 µM; in experiment [1] (setting [4]), 0.11 ± 0.02 µM; on HTRA3, greater than 50 µM; at HTRA2, 6.9 ± 1.5 µM.

As to `C=CC[C@@H]1NC(=O)[C@@H](NC(=O)[C@H](C)NC(=O)[C@H](C)NC(=O)OCc2ccccc2)[C@@H](C)OC(=O)[C@H](C(C)C)NC(=O)[C@H](Cc2ccccc2)N(C)C(=O)[C@H](CC(C)C)N2C(=O)[C@H](CC[C@H]2O)NC1=O` [Ahp17], the Ki on HTRA1 was greater than 50 µM; in experiment [1] (setting [3]), 0.16 µM; at HTRA3 it was 0.84 µM; on HTRA2 it was 1.38 µM.

For `CC(C)C[C@H]1C(=O)N(C)[C@@H](Cc2ccccc2)C(=O)N[C@@H](C(C)C)C(=O)O[C@H](C)[C@H](NC(=O)[C@H](Cc2ccccc2)NC(=O)[C@H](C)NC(=O)OCc2ccccc2)C(=O)N[C@@H](C(C)C)C(=O)N[C@H]2CC[C@@H](O)N1C2=O` [Ahp4], the Ki in experiment [2] is greater than 50 µM. Moreover, the “HTRA2 inhibition potency relative to Ahp1” value on HTRA2 (compared with Ahp1) is “more than ten-fold more potent”.

As to `CC(C)C[C@H]1C(=O)N(C)[C@@H](Cc2ccccc2)C(=O)N[C@@H](C(C)C)C(=O)O[C@H](c2ccccc2)[C@H](NC(=O)[C@H](C)NC(=O)[C@H](C)NC(=O)OCc2ccccc2)C(=O)N[C@@H](C(C)C)C(=O)N[C@H]2CC[C@@H](O)N1C2=O` [Ahp3], the Ki in experiment [2] was greater than 50 µM.

As a reminder, the Ki is a measure of affinity in units of concentration, obtained from inhibition or displacement.
